B1: α2-antiplasma: positive control in the platelet aggregation assay (protein, UniProt P08697 40-491, looked up)
Alpha-2-antiplasmin: NQEQVSPLTLLKLGNQEPGGQTALKSPPGVCSRDPTPEQTHRLARAMMAFTADLFSLVAQTSTCPNLILSPLSVALALSHLALGAQNHTLQRLQQVLHAGSGPCLPHLLSRLCQDLGPGAFRLAARMYLQKGFPIKEDFLEQSEQLFGAKPVSLTGKQEDDLANINQWVKEATEGKIQEFLSGLPEDTVLLLLNAIHFQGFWRNKFDPSLTQRDSFHLDEQFTVPVEMMQARTYPLRWFLLEQPEIQVAHFPFKNNMSFVVLVPTHFEWNVSQVLANLSWDTLHPPLVWERPTKVRLPKLYLKHQMDLVATLSQLGLQELFQAPDLRGISEQSLVVSGVQHQSTLELSEVGVEAAAATSIAMSRMSLSSFSVNRPFLFFIFEDTTGLPLFVGSVRNPNPSAPRELKEQQDSPGNKDFLQSLKGFPRGDKLFGPDLKLVPPMEEDYPQFGSPK

Columns and labels:
[1] = Estrogen fetotoxicity; set-up: concentration or dose not given beside the values; conditions: in vivo
[2] = tested on: 6WI-1 mammary tumor cells; assay: Mouse ascites mammary tumor assay (6WI-1 isograft); type: in vivo; conditions: for Suppression of accumulation of cells and ascites fluid volume (anticancer activity): 1.0 μg peptide per day for 11 days; for % Inhibition Of Activity: 6WI-1 Acites Volume / % Inhibition Of Activity: 6WI-1 Body Weight / % Inhibition Of Activity: 6WI-1 Cell Prol: 6WI-1 mouse mammary ascites tumor
Method: The growth suppression of the mammary ascites tumor by AFP peptides and its fragments P149a, P149b and P149c, and control peptides were determined in non-estrogen dependent assays which measured tumor cell growth and ascites accumulation of 6WI-1 mammary transplanted NYLAR/nya mice. […] Tumor cell inocula included doses of 0.3, 1.0, and 3.0×10^6 cells which produced host mortality at 12-14 days which was lethal in 100% of the animals. Following peptide dose titration studies, mice inoculated with 6WI-1 mammary cells were injected with a previously-determined optimal dose of 1.0 μg peptide per day or saline for 11 days. On day 12 following inoculation, the total accumulated ascites fluid volume and tumor cells in the peritoneal cavity of each animal were harvested and the cell count determined.
Inoculation of mice with all three cell doses led to an increase in body weight from 25 g (day 0) to approximately […] by day 12, due to the accumulation of tumor cells and ascites fluid in the intraperitoneal cavity. An average cell count in accumulated ascites fluid on day 12 was greater than 10^8 cells/ml with a total ascites volume approximating 20 mls. Tumor cell proliferation in this model has been reported to correlate with the volume of ascites fluid accumulated.
The 6WI-1 mouse mammary tumor studies involving peptide and non-peptide treatment were further compared by histopathological analysis performed on hematoxylin/eosin stained tissue sections.

[3] = tested on: 6WI-1 mammary tumor cells; assay: 6WI-1 mammary tumor in 15-day old mouse pups (6 day assay); type: in vivo; set-up: % Inhibition Of Activity: 6WI-1 Pup Ascites: concentration or dose not given beside the values; conditions: mouse pups
Description: As an alternative model of the 6WI-I mammary tumor in adult mice, an inocula of 1×10^6 tumor cells injected into 15-day old mouse pups provided a 6 day rather than a 12 day assay and replicated the same tumor growth suppression by GIP.

[4] = tested on: human kidney tumor cell line
[5] = tested on: human platelets; assay: Platelet aggregation in human platelet-rich plasma; type: cell-based; set-up: % Inhibition Of Activity: Platelet Agg. ADP / % Inhibition Of Activity: Platelet Agg. AA / % Inhibition Of Activity: Platelet Agg. Coll: concentration or dose not given beside the values; conditions: for % Inhibition Of Activity: Platelet Agg. ADP: ADP-induced; for % Inhibition Of Activity: Platelet Agg. AA: arachidonic acid-induced; for % Inhibition Of Activity: Platelet Agg. Coll: collagen-induced; for Inhibition (%) Of Platelet Aggregation, Adenosine Diphosphate (ADP) 2.5 μM / Inhibition (%) Of Platelet Aggregation, Arachidonic Acid (AA) 0.3 mM / Inhibition (%) Of Platelet Aggregation, Collagen (COLL) 2 μg/ml / Inhibition (%) Of Platelet Aggregation, Epinephrine: peptide inhibitors 30 & 100 μM
Method: FIG. 9 presents exemplary data showing platelet aggregation modulation using 0.5 ml of normal human platelet-rich plasma (PRP) with varying amounts of P149 or P 149b using 2.5×10^6 platelets per reaction vessel.
FIG. 10 presents exemplary data showing platelet aggregation activation by arachidonic acid (AA) and collagen using P149-treated platelet suspensions • Panel A1: AA alone; • Panel A2: AA followed by epinephine (EPI) and EPI alone using P149b; • Panel A3: CD62P flow cytometry fluorescence quenching by P149; • Panel B1: collagen alone and collagen+P149; • Panel B2: collagen alone; collagen+P149a showing aggregation diminution.
GIP-derived peptide fragments and/or subfragments have been assayed for platelet aggregation by measuring light transmissions with an aggregometer using a stirred human platelet suspension. Kinlough-Rathbone et al., In: Platelet Aggregation in Measurements of Platelet Function, Eds. Harker L A, Zimmerman T S., Churchill Livingstone, London. pp. 64-87 (1983); and Whittle et al., “Specificity between the anti-aggregatory actions of prostacyclin, prostaglandin Eland D2 on platelets” In: Mechanisms of stimulus—response coupling in platelets, Eds. V. V. K., MacIntyre D E, Scully M F., New York and London: Plenum Press. pp. 109-115 (1985).
The ability of GIP and its fragments were individually examined for aggregation inhibition using citrated human platelet-rich plasma (PRP). The peptides were freshly dissolved in 0.15 M NaCl containing 2.5×10^6 platelets/ml. […]

[6] = tested on: immature mouse uterine growth; assay: E2-activated immature mouse uterine growth assay; type: in vivo; set-up: concentration or dose not given beside the values
[7] = tested on: MCF-7 cells; assay: Estrogen-dependent MCF-7 foci formation assay; type: cell-based, human; set-up: % Inhibition Of Activity: MCF-7 foci formation: concentration or dose not given beside the values
Description: Mizejewski et al., “Alpha-fetoprotein derived synthetic peptides: assay of an estrogen-modifying regulatory segment” Mol Cell Endocrinol 118:15-23 (1996). The P149 peptide inhibited the formation of tumor cell foci formed as a result of the accumulation of breast cancer cells which clump together due to loss of contact inhibition.

[8] = tested on: MCF-7 and 6WI-1 tumor cells; assay: Tumor cell adhesion to ECM proteins in microtiter plates; type: cell-based, human, murine
Method: FIG. 8 presents exemplary data showing the inhibition of P149 in the cellular adhesion of cancer cells to extracellular matrix (ECM) proteins for both human MCF-7 breast cancer cells and for murine 6WI-1 ascites-adapted mammary tumor cells. The cellular adhesion assay was performed in 96-well microtiter plates (Nunc Company, Denmark, catalog #263339) and the wells were pre-coated with 100 microliters of each of the above-mentioned ECM proteins for 24 hours as previously determined. After adding tumor cells, the plates were then incubated at 37° C. for various times; while 6WI-1 cells usually required only 2-4 hours incubation for adhesion; MCF-7 cells required 24 hours for attachment following trypsinization. For both cell lines, the cell culture media contained 5% calf serum to ensure cell attachment. The plates were washed twice with Hank's Saline, fixed in 0.5 mL of 37% formaldehyde, stained with crystal violet and read at […] on a microplate reader. Inset: Using a CyQUANT® stain kit, (Hoechst Corp., Germany) the plates were first exposed to a freeze/thaw cycle at −70° C. for 24 hours and 37° C. for 10 minutes. CyQUANT® buffer solution (150 microliters) was added to each well, and the cell adhesion was measured by fluorescence spectroscopy and quantitated using an ImageQuant® plate scanner (Fluorimager 595, Molecular Dynamics, Sunnyvale, Calif.).
This attachment of GIP was a slightly weaker adhesion matrix than was gelatin, chondroitin sulfate, and poly-lysine which approximated 30-35%. Using P149, the optimal amount of peptide required to inhibit tumor cell adhesion was determined by absorbing soluble peptide (1.0 pg to 100 μg) to the walls of microtiter plates. A constant number of MCF-7 tumor cells (i.e., for example, 1×10^5) were then added to the microtiter well and adhesion quantitated by fluorescence. […] The quantitation of MCF-7 and 6WI-1 cell adhesion in the presence of peptide versus peptide-free media was then determined on ECM-coated microtiter plates using 3 μg GIP/well as a competitive inhibitor. The P149 peptide was added to the wells immediately after the cells were dispensed and then the mixture was incubated as described. The AFP peptide was capable of cell adhesion inhibition in most of the ECM proteins in both tumor cell lines. Inhibition of mouse and human tumor cell adhesion was somewhat equivalent using collagen IV, fibrinogen, fibronectin, and thrombospondin. […] Thus, the GIP was found capable of eliciting different attachment inhibitions dependent on the type of ECM protein coating the wall of the microtiter plate and also the tumor cell type involved.

[9] = tested on: immature mouse uterine growth; assay: E2-activated immature mouse uterine growth assay; type: in vivo; set-up: % Inhibition Of Activity: Uterine Growth: concentration or dose not given beside the values; conditions: mouse, in vivo
Method: FIG. 3 presents exemplary data showing the growth suppressive activities of the oligomeric forms of P149, cyclic versus linear, are depicted in various in vitro and in vivo models. Biological activity was determined by three growth-dependent bioassays, namely; • Panel-A and A1) an immature rodent uterine bioassay; • Panel-B and B 1) an in vitro MCF-7 foci assay; • Panel-C and C1) an in vitro tumor cell cytostatic assessment. […] See text for details. Scrambled peptide=P327. […]

Molecule | % Inhibition Of Activity: Estrogen Fetotoxicty [1] [%] | Suppression of accumulation of cells and ascites fluid volume (anticancer activity) [2] | % Inhibition Of Activity: 6WI-1 Acites Volume [2] [%] | % Inhibition Of Activity: 6WI-1 Body Weight [2] [%] | % Inhibition Of Activity: 6WI-1 Cell Prol [2] [%] | % Inhibition Of Activity: 6WI-1 Pup Ascites [3] [%] | % Inhibition Of Activity: Kidney tumor growth [4] [%] | % Inhibition Of Activity: Platelet Agg. ADP [5] [%] | % Inhibition Of Activity: Platelet Agg. AA [5] [%] | % Inhibition Of Activity: Platelet Agg. Coll [5] [%] | Inhibition (%) Of Platelet Aggregation, Adenosine Diphosphate (ADP) 2.5 μM [5] | Inhibition (%) Of Platelet Aggregation, Arachidonic Acid (AA) 0.3 mM [5] | Inhibition (%) Of Platelet Aggregation, Collagen (COLL) 2 μg/ml [5] | Inhibition (%) Of Platelet Aggregation, Epinephrine [5] | % Inhibition Of Activity: Uterine Growth, Enzymatic Fragments [6] [%] | % Inhibition Of Activity: MCF-7 foci formation [7] [%] | % Inhibition Of Activity: Cell Adhesion [8] [%] | % Inhibition Of Activity: Uterine Growth [9] [%] | other results
AADIIIGHLCIRHE (listed as Homo sapiens) [P149b] | 67 | but not P149a or P149b, significantly suppressed | 26 | 31 | 34 | 32 | 50 | 95 | 100 | 90 | 95-98% | 100% | 90% | No effect | 19 | 31 | 58 | 22 | Inhibition of ADP-induced platelet aggregation (FIG. 9) ([5]; 0.5 ml PRP, 2.5×10^6 platelets per reaction vessel): 70%; Inhibition of ADP-induced platelet aggregation ([5]; ADP 3 μM, P149 at 100-300 μM PRP): 80-90%; Inhibition of arachidonic acid (AA)-induced platelet aggregation ([5]; for several minutes until epinephrine was added): complete aggregation inhibition
HPEAKRMPCAEDYLSVVLNQLCVLEHKTPVSDRV (listed as Homo sapiens) [P263, reference compound] | 0 | – | 10 | 13 | 5 | 0 | 0 | 0 | 0 | 0 | – | – | – | – | 0 | 0 | 0 | 0 | % Inhibition Of Activity: 6WI-1 Peptide Combos ([2]; peptide combination): 0%
LSEDKLLACGEG (listed as Homo sapiens) [P149a] | 63 | but not P149a or P149b, significantly suppressed | 21 | 22 | 28 | 21 | 25 | 40 | 0 | 0 | 30-40 (biphasic % | No effect | No effect | No effect | 24 | 33 | – | 28 | –
Risotcetin [reference compound] | – | – | – | – | – | – | – | – | – | – | 100% | 100% | 100% | 100% | – | – | – | – | –
B1 | – | – | – | – | – | – | – | – | – | – | 85-90% | 100% | 90% | No effect | – | – | – | – | –

From patent US20060111289A1, “Compositions and methods of using Alpha-fetoprotein growth inhibitory peptides” (Serometrix, LLC,, priority 2004, published 2006)
